One data set in a line: Absorbance spectra. The conditions noted are these: for Absorption max (nm) / Absorbance counter-screen: 25 mM sodium phosphate, pH 7.0; for Absorbance counter-screen: 300-750 nm; for Molar absorptivity: at absorption max. Format: physicochemical. As for the experimental part: Selected test compounds were assessed for absorption between 300 and 750 nm. Most compound absorption spectra were obtained at 100, 50, and 10 μM final compound concentrations in ALARM NMR buffer (25 mM sodium phosphate, pH 7.0). Final concentration of DMSO was constant at 2.0% (v/v). Compounds were allowed to incubate at RT in buffer for 10 min in UV-transparent polystyrene 384-well plates. Absorbance spectra were then obtained on a SpectraMax M3 or BMG Labtech CLARIOstar microplate reader at 25 °C. Significant absorbance was defined as molar absorptivity constants greater than 2000 M^−1 cm^−1 at wavelengths greater than 300 nm.

The next data set deals with GCN5. The conditions noted are these: cited from earlier work.
The target in a further data set is T1, AmpC β-lactamase (Escherichia coli, UniProt P00811).
T1 construct: Recombinant E. coli AmpC (amino acids 20–377); purchased MyBioSource.com
The data set can be described thus: biochemical. On the set-up: species or system E. coli. The conditions noted are these: for AmpC aggregation counter-screen / AmpC counter-screen result: 10 μM compound; for AmpC aggregation counter-screen: ± 0.01% Triton X-100; for AmpC counter-screen result: detergent-sensitive modulation; for inhibition at 10 µM: read-out: % Inhibition, AmpC. The protocol: Selected compounds were assessed for aggregation using a modified AmpC β-lactamase counter-screen[24],[32],[64]. Recombinant E. coli AmpC (amino acids 20–377) was obtained from MyBioSource.com. Testing was performed in ALARM NMR buffer (25 mM sodium phosphate, pH 7.0) in flat-bottom UV-transparent 96-well microplates in 150 μL reaction volumes. Compounds were tested in triplicate at 10 μM final concentrations in either the presence or absence of freshly-prepared 0.01% Triton X-100 (v/v). Final concentration of DMSO was 2.0% (v/v). Compounds were incubated with ~5 nM AmpC in 147 μL reaction buffer for 5 min at RT, followed by the addition of 3 μL of nitrocefin substrate (100 μM final concentration). Reaction solutions were gently mixed by pipetting up and down three times using a multichannel pipette. […] Percent activity was normalized to DMSO-only controls. Fluconazole and lidocaine were included as negative aggregation control compounds. Rottlerin was included as a positive aggregation control compound. Aggregators were defined as compounds with significant detergent-dependent changes in AmpC activity (t-test, adjusted P-value <0.05; mean differences greater than 30%). Activators were defined as compounds that increased AmpC enzymatic activity.
Background: Counterscreens check selectivity or assay interference.

The test system of a further data set is p300/CBP. The conditions noted are these: cited from earlier work.
The target in the next data set is T2, PCAF (Homo sapiens, UniProt Q92831).
T2 construct: Reaction Biology Corporation (assays run by this contract lab)
The conditions noted are these: cited from earlier work.

The subject of another data set is Tip60. Conditions: cited from earlier work; for IC50: original report, 24 (Supplementary References).
The subject of a further data set is CBP. Conditions: cited from earlier work; for IC50: original report, 22 (Supplementary References).
The mark [1] stands for this setting: @ 100 µM, ref 25 (Supplementary References).
The mark [2] stands for this setting: original report, 27 (Supplementary References).
[3] abbreviates: original report, 22 (Supplementary References).
Where [4] appears, read: @ 25 µM, ref 13 (Supplementary References).
Setting [5] is: @ 100 µM, 20 (Supplementary References).
Where [6] appears, read: @ 200 µM, ref 19 (Supplementary References).

A word on the IC50: it is the point on the concentration scale where inhibition reaches its midpoint. For orientation: inhibition means the change of the read-out against control, counted positive when it falls.

Where two headings read alike, the source gives them in different places. A value given as a limit tells only on which side of the number the result lay.

T1 sequence (P00811 20-377): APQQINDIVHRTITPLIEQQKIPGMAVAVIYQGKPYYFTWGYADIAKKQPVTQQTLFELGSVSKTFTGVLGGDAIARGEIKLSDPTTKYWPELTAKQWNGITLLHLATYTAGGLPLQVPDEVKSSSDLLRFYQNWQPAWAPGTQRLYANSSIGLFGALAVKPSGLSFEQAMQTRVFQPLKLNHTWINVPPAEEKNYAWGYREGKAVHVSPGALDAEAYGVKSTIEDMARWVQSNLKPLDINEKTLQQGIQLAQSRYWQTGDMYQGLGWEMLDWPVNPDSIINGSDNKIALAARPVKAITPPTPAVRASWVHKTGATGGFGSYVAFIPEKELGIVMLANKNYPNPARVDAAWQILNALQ
T2 sequence (Q92831 whole entry, species assumed): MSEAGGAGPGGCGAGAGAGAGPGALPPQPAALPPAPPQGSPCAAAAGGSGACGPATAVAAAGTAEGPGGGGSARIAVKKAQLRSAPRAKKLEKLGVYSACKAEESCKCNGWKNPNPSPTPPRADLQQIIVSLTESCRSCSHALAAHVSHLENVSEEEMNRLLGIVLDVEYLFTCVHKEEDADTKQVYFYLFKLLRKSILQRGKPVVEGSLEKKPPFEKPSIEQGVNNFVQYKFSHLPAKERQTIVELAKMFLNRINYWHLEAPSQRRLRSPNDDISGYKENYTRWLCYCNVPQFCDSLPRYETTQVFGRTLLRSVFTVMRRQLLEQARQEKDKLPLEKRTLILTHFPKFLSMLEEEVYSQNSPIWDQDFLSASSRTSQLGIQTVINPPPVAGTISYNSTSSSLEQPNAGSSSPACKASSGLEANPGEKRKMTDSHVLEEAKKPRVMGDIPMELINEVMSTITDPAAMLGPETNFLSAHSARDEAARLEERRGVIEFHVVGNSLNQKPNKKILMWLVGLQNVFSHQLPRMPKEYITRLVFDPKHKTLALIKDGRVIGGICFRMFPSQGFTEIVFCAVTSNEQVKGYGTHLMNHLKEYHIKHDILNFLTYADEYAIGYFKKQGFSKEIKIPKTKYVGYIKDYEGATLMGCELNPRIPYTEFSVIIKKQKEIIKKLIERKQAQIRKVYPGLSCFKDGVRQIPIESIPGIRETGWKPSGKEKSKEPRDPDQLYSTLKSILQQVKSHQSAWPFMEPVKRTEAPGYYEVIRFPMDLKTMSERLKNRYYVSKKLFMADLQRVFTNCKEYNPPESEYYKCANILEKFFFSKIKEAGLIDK

In the case of `CCCC1(c2ccccc2)NC(=O)N(CC(=O)N(C)Cc2c(F)cccc2Cl)C1=O` (stereo not drawn) [Compound 21, N-[(2-chloro-6-fluorophenyl)methyl]-2-(2,5-dioxo-4-phenyl-4-propylimidazolidin-1-yl)-N-methylacetamide], in “Absorbance spectra”, the “Absorption max (nm)” value was “Nominal” and the Absorbance counter-screen entry is “Negative”. Besides, in the data set on GCN5 (setting [1]), the “% inhibition, GCN5” value is less than 25%. The AmpC aggregation counter-screen result on AmpC β-lactamase is “Detergent-insensitive”. Besides, the “% inhibition, p300/CBP” value in the data set with p300/CBP (setting [1]) was less than 25%.
Turning to Plumbagin [Compound 8], in the data set “Absorbance spectra”, the “Absorption max (nm)” value was determined as 420 nm, the Absorbance counter-screen entry is “Flagged (Significant absorbance was defined as molar absorptivity constants greater than 2000 M^−1 cm^−1 at wavelengths greater than 300 nm)” and the “Molar absorptivity” value was 3200 M⁻¹ cm⁻¹. Besides, at PCAF (@ 50 µM, 23 (Supplementary References)), the “% inhibition, PCAF” value is ~ 50%. For the same compound, the AmpC aggregation counter-screen entry on AmpC β-lactamase is “Detergent-insensitive”.
For the compound `Cl.Cl.O=C(O)Cn1nnc(-c2ccc(CN(CCCCOc3ccc(CN4CCCC4)cc3)CCc3ccccc3)cc2)n1` [Compound 20, TH1834], in “Absorbance spectra”, the “Absorption max (nm)” value is listed as “Nominal” and the Absorbance counter-screen entry is reported as “Negative”. Besides, in the data set on Tip60, the IC50 was roughly 500 µM. Besides, on AmpC β-lactamase, the “AmpC counter-screen result” value is “likely aggregators”, the AmpC aggregation counter-screen result is given as “Detergent-sensitive (activator)” and the inhibition at 10 µM was -63 ± 26%.
Consider `COc1cc(/C=C/C(=O)CC(=O)/C=C/c2ccc(O)c(OC)c2)ccc1O` [Compound 11, Curcumin], for which, in “Absorbance spectra”, the “Absorption max (nm)” value was determined as 425 nm, the Absorbance counter-screen result is “Flagged (Significant absorbance was defined as molar absorptivity constants greater than 2000 M^−1 cm^−1 at wavelengths greater than 300 nm)” and the “Molar absorptivity” value stood at 20000 M⁻¹ cm⁻¹. Besides, on PCAF (@ 100 µM, ref 15 (Supplementary References)), the “% inhibition, PCAF” value is less than 10%. Moreover, the AmpC aggregation counter-screen result at AmpC β-lactamase was “Detergent-sensitive (Aggregators were defined as compounds with significant detergent-dependent changes in AmpC activity (t-test, adjusted P-value <0.05; mean differences greater than 30%))”.
Regarding `CCCCCCCCCCCCCCCc1cccc(O)c1C(=O)O` [Compound 14, Anacardic acid], in the data set “Absorbance spectra”, the “Absorption max (nm)” value came out at 305 nm and the Absorbance counter-screen entry was “Negative”. The AmpC aggregation counter-screen entry at AmpC β-lactamase was “Detergent-sensitive (Aggregators were defined as compounds with significant detergent-dependent changes in AmpC activity (t-test, adjusted P-value <0.05; mean differences greater than 30%))”. The IC50 with p300/CBP (setting [2]) was 8.5 µM.
With `Clc1ccc(-c2csc(NN=C3CCCC3)n2)cc1` [Compound 7, CPTH2], in the data set “Absorbance spectra”, the “Absorption max (nm)” value is listed as 285 nm and the Absorbance counter-screen result was “Negative”. The IC50 with GCN5 (setting [3]) is roughly 500 µM. At AmpC β-lactamase, the “AmpC counter-screen result” value is “likely aggregators” and the AmpC aggregation counter-screen result is “Detergent-sensitive (Aggregators were defined as compounds with significant detergent-dependent changes in AmpC activity (t-test, adjusted P-value <0.05; mean differences greater than 30%))”.
`C=C1C(=O)O[C@H](CCC)[C@H]1C(=O)O` [Compound 6, MB-3]: in “Absorbance spectra”, the “Absorption max (nm)” value is reported as “Nominal” and the Absorbance counter-screen result is reported as “Negative”. The IC50 in the data set with GCN5 (setting [3]) was 100 µM. In addition, the AmpC aggregation counter-screen result on AmpC β-lactamase was “Detergent-insensitive”. Also, the IC50 in the data set on CBP is 500 µM.
Take `O=C(O[C@@H]1Cc2c(O)cc(O)cc2O[C@@H]1c1cc(O)c(O)c(O)c1)c1cc(O)c(O)c(O)c1` [Compound 10, (-)-Epigallocatechin gallate]: in “Absorbance spectra”, the “Absorption max (nm)” value was determined as 290 nm. Moreover, the Absorbance counter-screen entry in “Absorbance spectra” is “Negative”. The IC50 is 70 µM in the data set on Tip60 and 50 µM with CBP. At AmpC β-lactamase, the AmpC aggregation counter-screen entry is listed as “Detergent-insensitive”.
Regarding `CCCCCCCCCCCC1=C(O)C(=O)C=C(O)C1=O` [Compound 9, Embelin], in “Absorbance spectra”, the “Absorption max (nm)” value is given as 315 nm, the Absorbance counter-screen result is recorded as “Flagged (Significant absorbance was defined as molar absorptivity constants greater than 2000 M^−1 cm^−1 at wavelengths greater than 300 nm)” and the “Molar absorptivity” value turned out to be 21000 M⁻¹ cm⁻¹. In the data set with Tip60 (setting [4]), the “% inhibition, Tip60” value is 25%. The AmpC aggregation counter-screen result at AmpC β-lactamase was “Detergent-sensitive (Aggregators were defined as compounds with significant detergent-dependent changes in AmpC activity (t-test, adjusted P-value <0.05; mean differences greater than 30%))”. Further, the “% inhibition, p300/CBP” value with p300/CBP (setting [4]) is recorded as 25%.
Regarding `Cc1cc2c(C(C)C)c(O)c(O)c(C=O)c2c(O)c1-c1c(C)cc2c(C(C)C)c(O)c(O)c(C=O)c2c1O` [Compound 16, Gossypol], in “Absorbance spectra”, the “Absorption max (nm)” value was 385 nm, the Absorbance counter-screen result is reported as “Flagged (Significant absorbance was defined as molar absorptivity constants greater than 2000 M^−1 cm^−1 at wavelengths greater than 300 nm)” and the “Molar absorptivity” value came to 22000 M⁻¹ cm⁻¹. Moreover, the “% inhibition, Tip60” value in the data set with Tip60 (setting [5]) was less than 10%. In addition, the IC50 at PCAF (setting [2]) was roughly 50 µM. The AmpC aggregation counter-screen entry at AmpC β-lactamase is recorded as “Detergent-sensitive (Aggregators were defined as compounds with significant detergent-dependent changes in AmpC activity (t-test, adjusted P-value <0.05; mean differences greater than 30%))”. Also, the IC50 in the data set on CBP was roughly 25 µM.
Consider `COc1ccc(S(=O)(=O)ON=C2C=C(C)C(=O)C(C)=C2)cc1` [Compound 5, L002], for which, in “Absorbance spectra”, the “Absorption max (nm)” value stood at 290 nm and the Absorbance counter-screen entry is reported as “Negative”. The “% inhibition, Tip60” value in the data set on Tip60 (setting [5]) is reported as 2%. The IC50 with GCN5 (HotSpot assay, ref 9 (Supplementary References)) is 33.9 µM. Besides, on AmpC β-lactamase, the AmpC aggregation counter-screen result is “Detergent-insensitive”. Besides, the “% inhibition, CBP” value with CBP (@ 100 µM, ref 9 (Supplementary References)) is on record as 32%.
For `CCCCCCCc1ccc(CCc2cccc(O)c2C(=O)O)cc1` [Compound 15, MG 149], in the data set “Absorbance spectra”, the “Absorption max (nm)” value came out at 300 nm and the Absorbance counter-screen result was “Negative”. Moreover, the IC50 in the data set with Tip60 is 74 µM. Also, the “% inhibition, PCAF” value at PCAF (setting [6]) is listed as 3%. For the same compound, on AmpC β-lactamase, the “AmpC counter-screen result” value is “negative” and the AmpC aggregation counter-screen result is “Detergent-insensitive”. In addition, in the data set with p300/CBP (setting [6]), the “% inhibition, p300/CBP” value is on record as 30%.
On to `COc1cc(/C=C/c2cc(/C=C/c3ccc(O)c(OC)c3)n(-c3ccc(C(=O)[O-])cc3)n2)ccc1O.[Na+]` [Compound 17, CTK7A], for which, in the data set “Absorbance spectra”, the “Absorption max (nm)” value is given as 325 nm, the Absorbance counter-screen result is “Flagged (Significant absorbance was defined as molar absorptivity constants greater than 2000 M^−1 cm^−1 at wavelengths greater than 300 nm)” and the “Molar absorptivity” value was 30000 M⁻¹ cm⁻¹. Further, the “% inhibition, GCN5” value with GCN5 (@ 40 µM, ref 21 (Supplementary References)) is listed as 40%. On AmpC β-lactamase, the AmpC aggregation counter-screen result is reported as “Detergent-sensitive (activator)” and the inhibition at 10 µM is -52 ± 35%.

The values above are taken from publication PMC5688144, “Assay interference and off-target liabilities of reported histone acetyltransferase inhibitors” (Nature Communications, 2017).
